Results on seven compounds are retold here after patent publication US10203334B2, “Methods and compositions related to nucleic acid binding assays” (Nubad, LLC, priority 2012, dated 2019).

Experiment [1] concerns DNA d(G4C4). The experiment can be described thus: Displacement of TO-neo (36a) from GC DNA, 96-well. The class given is binding. The conditions noted are these: FIG. 14. From the text: The HTS by the displacement of a thiazole-neomycin (TO-neo (36a)) bound from a synthetic DNA sequence eight bases long designed to conform to A-form DNA by the synthetic molecule neomycin-anthraquinone 67 using a 96 well plate format and a fluorescent plate reader was disclosed herein.
The high throughput screening (HTS) has been designed to determine the binding of drugs to the target sequence d(G4C4). The target is predicted to exist predominately in the A-form conformation of DNA. This HTS involves the displacement of a TO-neo (36a) molecule by DNA binding molecules in a 96 well plate format using a fluorescent plate reader. […] The quality of the assay was determined by the calculation of a Z′-factor using equation 1 for the displacement of TO-neo (36a) from the DNA by a neomycin-anthraquinone 67 conjugate. […]
The fluorescence of the probe decrease approximately 60% with the addition of the neomycin-anthraquinone 67, a synthetic molecule predicted to bind in the major groove. However, with the addition of the minor groove binding compound 59, the change in fluorescence is less than 10%. The change in the fluorescence observed upon the addition of the compound 59 is approximately the same as that observed in the DMSO control.

The subject of experiment [2] is DNA d(G4C4). The experiment can be described thus: Displacement of F-neo (42a) from GC DNA, 96-well. The class given is binding. To be noted: one molar equivalent; FIG. 15. From the text: The HTS by the displacement of a fluorescene-neomycin (F-neo (42a)) bound from a synthetic DNA sequence eight bases long designed to conform to A-form DNA by the synthetic molecule neomycin-anthraquinone (67) using a 96 well plate format and a fluorescent plate reader is disclosed.
The high throughput screening (HTS) has been designed to determine the binding of drugs to the target sequence d(G4C4). The target is predicted to exist predominately in the A-form conformation of DNA. This HTS involves the displacement of a fluorescene-neomycin (F-neo (42a)) by DNA binding molecules in a 96 well plate format using a fluorescent plate reader. […] The quality of the assay was determined by the calculation of a Z′-factor using equation 1 for the displacement of F-neo (42a) from the DNA by neomycin-anthraquinone 67. The final assay results were obtained using the average (μn) and standard deviation (σn) from 36 wells of 0.1 μM F-neo (42a)/DNA d(G4C4) as the negative control and from the average (μp) and standard deviation (σp) 36 wells of 0.1 μM F-neo (42a)/DNA d(G4C4) mixed with 0.3 μM neomycin-anthraquinone 67 as the positive control.
Upon binding to the DNA the fluorescence of F-neo (42a) is quenched. […] This increase is not observed with the addition of the minor groove binding compound 59, in which the change in the fluorescence observed is approximately the same as that of the DMSO control.

For another experiment, the system named is bacterial A-site oligos. To be noted: cited from earlier work.
In a further experiment the test system is TAR RNA. The conditions noted are these: read-out: IC50 for inhibition of Tat peptide binding to the TAR RNA; cited from earlier work.
Experiment [3] concerns E. coli ribosomal A-site oligonucleotide (SEQ ID No. 1). In words: 96-well F-neo displacement HTS on ribosomal A-site. The format is binding. The conditions noted are these: 0.30 mM F-neo, 0.3 mM A-site oligonucleotide, 1.0 mM neomycin. The text has this: [drawing 24] where FHNeo represents the protonated form of F-neo. F(-)Neo, upon binding to nucleic acids such as DNA or RNA, is destabilized by the nucleic acid backbone negative potential, shifting the equilibrium towards FH, making F-neo a weaker acid, raising the pKa, which is what we observe upon binding to the A-site. For the A-site targeted assay, we calculated the Z' factor (Z=1-3(2.7+2.8)/(414-267)=0.89. […] Provided is a detailed example for the development of a HTS by the displacement of a fluorescene-neomycin (F-neo (42a)) from rRNA A-site oligonucleotide (SEQ ID No. 1) using a 96 well plate format and a fluorescent plate reader. […] This HTS involves the displacement of a fluorescene-neomycin (F-neo (42a)) by potential RNA binding molecules in a 96 well plate format using a fluorescent plate reader. […] F-neo based RNA binding assays have been performed using a fluorescence spectrophotometer with a 96-well plate reader and results recorded in FIG. 4. […] Fo is defined as the baseline fluorescence intensity of the RNA/F-neo complex and F is the intensity with added drug. The difference between the fluorescence intensity baseline of F-neo/A-site complex and complex with added drug (F-Fo) indicates the extent of the competition of drug for the binding site, this allows the relative binding affinities of aminoglycosides to be established. […]

Experiment [4] deals with dimeric form of a parallel quadruplex formed by the Tetrahymena telomere. The conditions noted are these: cited from earlier work.

As for `CN(C)CCCNC(=O)c1cc(NC(=O)c2cc(NC(=O)c3nc(NC(=O)c4nc(NC(=O)CCCNC(=O)c5cc(NC(=O)c6cc(NC(=O)c7nc(NC(=O)c8nccn8C)cn7C)cn6C)cn5C)cn4C)cn3C)cn2C)cn1C` [compound 59, reference compound], the “decrease in fluorescence of TO-neo (36a) bound to d(G4C4)2 on addition of compound” value in the experiment on DNA d(G4C4) [1] was “less than 10%”. In the experiment with DNA d(G4C4) [2], the “change in fluorescence of F-neo (42a) bound to d(G4C4)2 on addition of compound” value was “not displaced”.

With `NCC1O[C@H](OC2C(O)C(OC3C(O)[C@H](N)CC(N)[C@H]3O[C@H]3OC(CN)[C@@H](O)C(O)C3N)O[C@@H]2CSCCNC(=S)NCCNC(=O)c2ccc3c(c2)C(=O)c2ccccc2C3=O)C(N)C(O)[C@@H]1O` (stereo partly drawn) [neomycin-anthraquinone 67, Neomycin-Anthraquinone Conjugate], in the experiment with DNA d(G4C4) [1], the “decrease in fluorescence of TO-neo (36a) bound to d(G4C4)2 on addition of compound” value is listed as “approximately 60%”. For the same compound, the “change in fluorescence of F-neo (42a) bound to d(G4C4)2 on addition of compound” value with DNA d(G4C4) [2] is recorded as “significant increase in the fluorescence”.

With `NC[C@@H]1O[C@H](O[C@H]2[C@@H](O)[C@H](O[C@@H]3[C@@H](O)[C@H](N)C[C@H](N)[C@H]3O[C@H]3O[C@H](CO)[C@@H](O)[C@H](O)[C@H]3N)O[C@@H]2CO)[C@H](N)[C@@H](O)[C@@H]1O` [paromomycin], the “relative binding affinities with bacterial A-site oligos” value (shortened to “relative binding affinities”) in the experiment on bacterial A-site oligos was “neomycin>paromomycin>ribostamycin”.

As for `NC[C@H]1O[C@H](O[C@H]2[C@H](O[C@@H]3O[C@H](CO)[C@@H](O)[C@H]3O)[C@@H](O)[C@H](N)C[C@@H]2N)[C@H](N)[C@@H](O)[C@@H]1O` [ribostamycin], the “relative binding affinities” value in the experiment on bacterial A-site oligos is “neomycin>paromomycin>ribostamycin”.

For orientation: IC50 means the point on the concentration scale where inhibition reaches its midpoint. Consider `[H]/N=C(/N)N[C@H]1[C@H](O)[C@@H](O)[C@H](O[C@@H]2O[C@@H](C)[C@](O)(C=O)[C@H]2O[C@@H]2O[C@@H](CO)[C@H](O)[C@@H](O)[C@@H]2NC)[C@@H](N/C(N)=N\[H])[C@@H]1O` [streptomycin], for which, in the experiment with TAR RNA, the IC50 is 9.5 ± 0.8 µM.

As to gentamicin, in the experiment with TAR RNA, the IC50 was 45 ± 4 µM.

For the compound neomycin, in the experiment on bacterial A-site oligos, the “relative binding affinities” value is given as “neomycin>paromomycin>ribostamycin”. The “effect of added drug on fluorescence of F-neo/A-site oligonucleotide complex” value in experiment [3] is “restored the intensity to F-neo only levels”. Further, the IC50 in the experiment with TAR RNA is 0.92 ± 0.09 µM. In addition, the “affinity” value in experiment [4] is given as “nanomolar affinity”.
